Assay results as given in patent publication US5530157A, “Anti-inflammatory benzoic acid derivatives” (Scios Nova Inc., priority 1995, dated 1996).
Like-named read-outs stand apart in the source and are kept apart here.

Columns and labels:
[1] = system: neutrophils; assay: Superoxide production by PMN, PAF; assay type: cell-based; details: Homo sapiens, Neutrophil; PAF 20 nM, TNF preincubation; read-out: IC50 to inhibit superoxide production, PAF/O2
Text: (§1) Several in vitro assays were employed to determine the ability of compounds of the invention to function as anti-inflammatory agents. One group of assays measured the ability of the compounds to inhibit adherence of polymorphonuclear neutrophils to serum coated wells (in the presence of either TNF-α or PAF) or to human umbilical vein endothelial cells (in the presence of INF-γ). Another group of assays measured the ability of the compounds to inhibit the release of elastase or superoxide from activated neutrophils. These assays were performed in the following manner.
(§2) Superoxide production. Superoxide production by PMN was measured as the superoxide dismutase (SOD)-inhibitable reduction of ferricytochrome c. […] Therefore, subsequent experiments were performed in the presence of cytochrome c only. In all cases, experiments were carried out in 96 well plates. Before the addition of cells, plates were coated by incubating each well with 200 μl of 10% human serum for 1 h in 37° C. Plates were then washed several times with PBS containing 10 mM CaCl2 and MgCl2. Neutrophils, resuspended in Hank's balanced salt solution (HBSS) to a final concentration of 4×10^6 cells/ml, were preincubated with TNF (10 ng/ml) for 10 min at 37° C. in the presence of cytochrome c (75 μm). Experiments were then performed with 100 μl of this cell suspension added to each well, followed by the addition of 10 μl of an aqueous dilution of test compound (50 nm-[…]). Immediately after the addition of test compound, a 10 μl aliquot of activators (fMLP, 300 nM; PAF, 20 nM; C5a, 5 μg/ml) was added to each well. Plates were immediately transferred to a preheated Thermomax kinetic microplate reader and the change in absorbance at […] was recorded over a 3 min period.

[2] = system: neutrophil accumulation in thioglycollate-induced peritonitis; assay: Neutrophil accumulation in thioglycollate-induced peritonitis in the mouse; assay type: in vivo, Male CF-1 mice; details: for ED50: iv
Method: (§3) Two in vivo models of inflammation were used to assess the anti-inflammatory activity of compounds of the invention. One model measures neutrophil accumulation in thioglycollate-induced peritonitis in mice. The other measures neutrophil accumulation in the cutaneous Reverse Passive Arthus reaction in rats. These assays were carried out as follows.
Male CF-1 mice were pretreated with individual test compound (4-6 mice per compound) 10 min prior to thioglycollate treatment. Test compounds at various doses, solubilized in 1% Tween, pH 9.0, were injected into the tail vein. Thioglycollate (4% Brewer's thioglycollate broth in water) was administered intraperitoneally in 1 ml volume. Peritoneal lavages, performed 4 hrs following thioglycollate treatment, involved injecting 5 ml of Dulbecco's phosphate buffered saline with 0.1% bovine serum albumin and 10 units/ml heparin into the peritoneal cavity, massaging the peritoneum, and then removing fluid through peritoneal aspiration. The lavage fluid was centrifuged, red blood cells lysed with water, cells were resuspended in Hank's balanced salt solution, and leukocytes were counted with a modified Neubauer hemacytometer. Leukocyte preparations (cytospin slides) were differentially stained with a Giemsa stain. Neutrophil accumulation expressed as a percent of control was calculated after the subtraction of baseline neutrophils from all treatement groups (see Table III).

[3] = system: polymorphonuclear neutrophils; assay: Adherence of PMN to serum coated wells, PAF; assay type: cell-based; details: Homo sapiens, Polymorphonuclear neutrophil, 10 min, PAF 1 μM, read-out: IC50 to inhibit adhesion, PAF serum
Text: as §1
(§4) Isolation of PMN: Blood was drawn into syringes containing heparin (1 U/mL), from human volunteers (free of any medication for at least 48 hrs). 30 mL of blood was layered over a gradient of 10 mL 1.077 g/mL Histpaque (Sigma, St. Louis, Mo.), and centrifuged at room temperature, 400×g for 20 min. All subsequent manipulations were carried out at room temperature, with endotoxin free reagents, and using polypropylene pipettes and tubes, to prevent activation of the PMN. The pinkish PMN layer immediately above the RBC was collected and washed 2× with Hank's buffered salt solution with calcium and magnesium, 0.2% glucose, and 10 mM HEPES, pH 7.2 (HBSS++) by centrifugation at 400×g for 10 min. Pellets were suspended in 8 mL 0.9% NaCl, and RBC lysed by the addition of 24 mL water for 40 sec, followed by the addition of 8 mL of 3.6% NaCl. After centrifugation at 200×g for 8 min, RBC ghosts were aspirated from the top of the PMN pellet, and cells washed with HBSS++. PMN adherence to protein substrates: 96 well tissue culture plates were coated with 10% pooled human serum (North American Biological,;, Miami, Fla.) in phosphate buffered saline (PBS) for 1 hr at 37° C., followed by washing 3× with PBS. Test compounds were prepared in DMSO as 100× stocks. PMN (4×10^6 /mL) were preincubated with test compounds for 10 min at 37° C. in serum-coated wells. Tumor necrosis factor (TNF-α) was added to 3 nM or platelet aggregation facor (PAF) to 1 μM, and adherence was carried out for 20 or 10 min, respectively. Nonadherent cells were aspirated, and wells washed two times with warm PBS with calcium and magnesium, with blotting of the inverted plate following each aspiration. Adherent PMN were quantitated using a BCA protein assay (Pierce, Rockford, Ill.).

[4] = system: neutrophils; assay: Elastase release from neutrophils, fMLP; assay type: cell-based; details: Homo sapiens, Neutrophil; fMLP 200 nM, cytochalasin b; read-out: IC50 to inhibit elastase release, fMLP/ER
Text: as §1
(§5) Elastase release. Neutrophils (5×10^6 /ml in HBSS) were preincubated for 5 min at 37° C. with cytochalasin b (5 μg/ml). Experiments were performed in microtubes (96 per rack) to which were added the cell suspension, test compound (50 nM-500 μM), and one of several activators (fMLP, 200 nM, C5a, 24 nM; PAF, 20nM). After incubation (30 min, 37° C.) the tubes were centrifuged (1 min, 1500 rpm) and the supernatants assayed for elastase activity according to the following protocol:
(§6) Specifically, 10 μl of purified human neutrophil elastase standard or of sample was added to 70 μl or 0.1M Tris pH 7.5, 0.5% Brij detergent and 10 μl or 5 mM elastase substrate (methoxysuccinyl-alanyl-alanyl-prolyl-valyl paranitroanilide) in a 96 well microliter plate. Plates were indubated for 60 min at 37° C. and absorbance was read at 410 nm on a microplate reader. Elastase activity was quantitated relative to standards.

[5] = system: human umbilical vein endothelial cells; assay: INF-γ HUVEC assay: adherence of PMN to human umbilical vein endothelial cells; assay type: cell-based; details: HUVECs with INF-γ 1 unit/mL 20 hrs, PMN activated with 50 ng/mL TNF, read-out: IC50 to inhibit adhesion, IFN-γ HUVECS
Text: as §1, §4
INF-γHUVEC Assay. Primary human umbilical vein endothelial cells (HUVECs) from Clonetics Corp. (San Diego, Calif.) were seeded at 20,000 cells per wall in a 96 well tissue culture plate that was coated with fibronectin, for 45 min and then twice rinsed with phosphate buffered saline. To the culture media (M199, 80%; FBS, 20%; […] endothelial cell growth factor (Maciag et all, Proc. Natl. Acad. Sci. USA (1979) 76(11):5674-5678), 0.1 mg/mL heparin; 5% CO2; 37° C.) was added INF-γ (R&D Systems) at 1 unit/mL for 20 hrs. Isolated PMNs were loaded with the fluorescent dye BCECF AM (Molecular Probes) by incubating 1×10^7 cells/mL in HBSS with 4 μM dye for 30 min at 37° C. The PMNs were incubated with test compound for 10 min at 37° C., then activated with 50 ng/mL TNF and immediately added to the HUVECs which had been rinsed twice with HBSS+1% human serum. The co-culture plate was incubated at 37° C. for 20 min followed by gentle washing (twice) with HBSS+1% human serum. The extent of adherence was assessed by measuring the amount of fluorescence (485-535 nm filter) in each well with a fluorescence plate reader (Idexx).

[6] = system: neutrophils; assay: Superoxide production by PMN, fMLP; assay type: cell-based; details: Homo sapiens, Neutrophil; fMLP 300 nM, TNF preincubation; read-out: IC50 to inhibit superoxide production, fMLP/O2
Text: as §1, §2

[7] = system: neutrophils; assay: Elastase release from neutrophils, PAF; assay type: cell-based; details: Homo sapiens, Neutrophil; PAF 20 nM, cytochalasin b; read-out: IC50 to inhibit elastase release, PAF/ER
Text: as §1, §5, §6

[8] = system: neutrophil accumulation in the cutaneous Reverse Passive Arthus reaction; assay: Neutrophil accumulation in the cutaneous Reverse Passive Arthus reaction in rats; assay type: in vivo, Male Sprague Dawley rats; details: rat, i.p.; for Reverse Passive Arthus % Inhibition: 1.4 mg/kg, n = 4; for ED50: Neutrophil, ip, 4 h, Reverse Passive Arthus, read-out: ID50 (the source's name)
Method: as §3
Male Sprague Dawley rats were treated with test compounds by intraperitoneal injection of 1.4 mg/kg in 1% Tween, pH 9.0 vehicle. After 1 hr, animals were lightly anesthetized with 2% isoflurane, v/v, injected by intravenous route with 1 ml of 5 mg/ml human serum albumin, immediately follwed by intracutaneous administration of 75 μl of a solution of 4 mg/ml of goat anti-human serum albumin. Animals were anesthetized 4 hrs after antigen-antibody treatment. Punch biopsies of the dorsal injection sites were performed with one biopsy weighed for wet/dry weight ratio determination. The remaining two skin biopsies were used for measuring myeloperoxidase content and were minced, weighed and homogenized for 30 sec in 20 mM phosphate buffer (pH 7.4). After centrifugation (20 min, 6000×g, 4° C.) the supernatant was decanted and the pellet resuspended in 50 mM phosphate buffer (pH 6.0) containing 0.5% hexadecyltrimethylammonium bromide. After three freeze/thaw cycles, the pellet was centrifuged (15 min, 20000×g, 4° C.) and 100 μl aliquots were added to 2.9 ml of assay buffer (50 mM phosphate buffer, 0.167 mg/ml o-dianiside, 0.05% H2 O2, pH 6.0). Absorbance at 460 nm was measured at 15 min. Results shown in Table IV were calculated as absorbance units/g dry weight.

[9] = system: polymorphonuclear neutrophils; assay: Adherence of PMN to serum coated wells, TNF-α; assay type: cell-based; details: Homo sapiens, Polymorphonuclear neutrophil, 20 min, TNF-α 3 nM, read-out: IC50 to inhibit adhesion, TNF-α serum
Text: as §1, §4

[10] = Neutrophil, mouse, i.v., thioglycollate-induced peritonitis, 4 hrs, read-out: ED50

Row | IC50 [1] [nM] | IC50 [3] [nM] | IC50 [4] [nM] | IC50 [5] [nM] | IC50 [6] [nM] | IC50 [7] [nM] | IC50 [9] [nM] | Compound | ED50 ([2]; 4 h) [mg/kg] | % Inhibition of neutrophil accumulation ([2]; mouse, i.v., 0.3 mg/kg, 4 hrs) [%] | % Inhibition of neutrophil accumulation ([2]; mouse, i.v., 1 mg/kg, 4 hrs) [%] | % Inhibition of neutrophil accumulation ([2]; mouse, i.v., 3 mg/kg, 4 hrs) [%] | % Inhibition of neutrophil accumulation ([2]; mouse, i.v., 10 mg/kg, 4 hrs) [%] | % Inhibition of neutrophil accumulation ([2]; mouse, i.v., 30 mg/kg, 4 hrs) [%] | Reverse Passive Arthus % Inhibition [8] [%] | ED50 [2, 10] [mg/kg] | % Inhibition of neutrophil accumulation ([2]; mouse, i.v., 60 mg/kg, 4 hrs) [%] | ED50 [8] [mg/kg]
1 | 3000 | 2400 | 6250 | 25700 | 340 | 3230 | 2900 | O=C(O)c1ccc(/C=C/c2ccccc2-c2ccccc2)cc1 [NPC 18730, 4-[2-(biphenyl)-E-ethenyl]benzoic acid] | 0.8 | 16 | 20 | 67 | 37 | 48 | 40 | – | – | –
2 | – | 6500 | 8700 | 28000 | – | 19800 | 6400 | O=C(O)c1ccc(CCc2ccccc2-c2ccccc2)cc1 [NPC 18731, 4-[2-(biphenyl)ethyl]benzoic acid] | – | – | – | 22 | 44 | 59 | 40 | 4 | 59 | 0.1
3 | 520 | 860 | 7500 | 52400 | 150 | 600 | 6900 | O=C(O)c1ccc(C=Cc2ccccc2Oc2ccccc2)cc1 [NPC 18801, 2'-phenoxy-4-stilbenecarboxylic acid] | – | – | – | 36 | 65 | 65 | 3 | < 10 | – | –
4 | – | 1170 | – | 14500 | – | 7600 | 3600 | O=C(O)c1ccc(/C=C/c2ccccc2-c2ccc3ccccc3c2)cc1 [NPC 18812, 4-{2-[2-(2-naphthyl)phenyl]-(E)-ethenyl}benzoic acid] | – | – | – | 12 | 50 | 71 | 29 | 7 | 94 | 0.5
5 | 300 | 410 | 1200 | 30000 | 150 | 810 | 1800 | O=C(O)c1ccc(/C=C/c2ccccc2-c2ccc(Cl)c(Cl)c2)cc1 [NPC 18818, 4-{2-[2-(3,4-dichlorophenyl)phenyl]-(E)-ethenyl] benzoic acid] | – | – | – | 35 | 34 | 52 | 8 | < 30 | – | –
6 | – | 640 | – | – | – | – | – | O=C(O)c1ccc(/C=C/c2ccccc2-c2cc3ccccc3o2)cc1 [NPC 18915, 4-{2-[2-(2-benzofuranyl)phenyl]-(E)-ethenyl} benzoic acid] | – | – | – | – | – | – | – | – | – | –
